Laboratory results: patent US6593340B1, “Pharmaceutical compositions containing N-propargylphentermine and related analogs to treat neurodegeneration and/or depression” (CV Technologies, Inc., priority 2000, dated 2003)
Where two headings read alike, the source gives them in different places.

Assays:
[1] = target: T1, rat brain monoamine oxidase-A (Rattus norvegicus, UniProt P21396); experiment: Monoamine oxidase-A-inhibiting activity in vitro (radiochemical, 5-hydroxytryptamine substrate); assay type: biochemical
T1 construct: incubated in appropriately diluted homogenates of rat brain or liver; from tissue; host or cells: rat brain or liver homogenate
T1 sequence (P21396 1-526): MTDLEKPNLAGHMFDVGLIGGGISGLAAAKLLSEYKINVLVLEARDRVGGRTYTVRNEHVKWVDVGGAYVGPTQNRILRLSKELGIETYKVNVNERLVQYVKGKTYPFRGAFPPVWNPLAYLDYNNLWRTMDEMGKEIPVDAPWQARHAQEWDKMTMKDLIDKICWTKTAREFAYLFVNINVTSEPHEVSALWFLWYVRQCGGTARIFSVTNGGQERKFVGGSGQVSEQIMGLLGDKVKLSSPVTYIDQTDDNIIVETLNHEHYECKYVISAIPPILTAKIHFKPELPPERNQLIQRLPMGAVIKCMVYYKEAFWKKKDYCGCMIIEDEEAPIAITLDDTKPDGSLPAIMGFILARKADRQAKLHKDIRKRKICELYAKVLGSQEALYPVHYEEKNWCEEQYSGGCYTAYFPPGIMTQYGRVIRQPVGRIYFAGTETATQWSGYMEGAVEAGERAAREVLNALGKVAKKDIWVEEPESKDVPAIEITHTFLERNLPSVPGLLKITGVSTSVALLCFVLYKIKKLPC
Description: The compounds were evaluated for in vitro monoamine oxidase-A-inhibiting activity using the radiochemical procedure of Lyles and Callingham (1982) employing radiolabeled 5-hydroxytryptamine as substrate for monoamine oxidase-A. Various concentrations of the compounds of interest were incubated in appropriately diluted homogenates of rat brain or liver in a 0.2 M potassium phosphate buffer. Incubations proceeded at 37° C. for 10 minutes. Incubation was terminated by the addition of acid and the radiolabeled product (5-hydroxyindoleacetic acid) was extracted and quantified by liquid scintillation counting procedures. […] The percent inhibition of monoamine oxidase-A activity compared to controls containing no drug was calculated.

[2] = target: T2, rat brain monoamine oxidase-B (Rattus norvegicus, UniProt P19643); experiment: Monoamine oxidase-B-inhibiting activity in vitro (radiochemical, β-phenylethylamine substrate); assay type: biochemical
T2 construct: incubated in appropriately diluted homogenates of rat brain or liver; from tissue; host or cells: rat brain or liver homogenate
T2 sequence (P19643 1-520): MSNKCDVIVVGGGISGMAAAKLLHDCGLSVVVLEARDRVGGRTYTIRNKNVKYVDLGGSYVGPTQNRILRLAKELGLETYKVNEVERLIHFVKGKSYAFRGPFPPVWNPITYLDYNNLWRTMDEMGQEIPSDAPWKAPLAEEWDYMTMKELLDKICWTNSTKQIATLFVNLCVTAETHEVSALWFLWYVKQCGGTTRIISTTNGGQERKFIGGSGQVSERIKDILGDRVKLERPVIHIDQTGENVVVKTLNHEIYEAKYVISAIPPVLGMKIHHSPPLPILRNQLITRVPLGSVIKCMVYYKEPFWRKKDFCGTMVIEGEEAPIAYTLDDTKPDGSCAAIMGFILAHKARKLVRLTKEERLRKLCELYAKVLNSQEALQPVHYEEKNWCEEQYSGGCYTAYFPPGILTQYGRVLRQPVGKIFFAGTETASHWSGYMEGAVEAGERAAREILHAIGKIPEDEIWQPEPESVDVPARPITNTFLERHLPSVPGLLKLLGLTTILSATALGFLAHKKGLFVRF
Description: The compounds were evaluated for in vitro monoamine oxidase-B inhibiting activity using the radiochemical procedure of Lyles and Callingham (1982) employing radiolabeled β-phenylethylamine as substrate for monoamine oxidase-B. Various concentrations of the compounds of interest were incubated in appropriately diluted homogenates of rat brain or liver in a 0.2 M potassium phosphate buffer. Incubations proceeded at 37° C. for 10 minutes. Incubation was terminated by the addition of hydrochloric acid and the radiolabeled product (phenylacetic acid) was extracted and quantified by liquid scintillation counting procedures. […] The percent inhibition of monoamine oxidase-B activity compared to controls containing no drug was calculated. Reference: Lyles, G. A. and Callingham, B. A. (1982). In vitro and in vivo inhibition by benserazide of clorgyline-resistant amine exodiases in rat cardiovascular tissues. Biochem. Pharmacol, 31:1417-1424.

[3] = tested on: rat brain and liver monoamine oxidase-A; experiment: Monoamine oxidase-A-inhibiting activity ex vivo; assay type: in vivo; details: for % Inhibition Monoamine Oxidase-A: 7 days following injection, i.p., 10 mg/kg combined with DSP4 50 mg/kg; for effect on monoamine oxidase-A activity in the brain or liver: seven days after administration
[4] = tested on: rat brain and liver monoamine oxidase-B; experiment: Monoamine oxidase-B-inhibiting activity ex vivo; assay type: in vivo; details: for % Inhibition Monoamine Oxidase-B: 7 days following injection, i.p., combined with DSP4 50 mg/kg; for effect on monoamine oxidase-B activity in the brain or liver: seven days after administration
Description: The compounds were evaluated for ex vivo monoamine oxidase-B-inhibiting activity using the radiochemical procedure of Lyles and Callingham (1982) employing radiolabeled β-phenylethylamine as substrate for monoamine oxidase-B. The compounds of interest were injected intraperitoneally in water. Animals were killed by decapitation and the brains and livers immediately removed and frozen until assay for monoamine oxidase-B activity. Tissues were homogenized and appropriately diluted in buffer prior to incubation. Incubations proceeded at 37° C. for 10 minutes. Incubation was terminated by the addition of acid and the radiolabeled product (phenylacetic acid) was extracted and quantified by liquid scintillation counting procedures. […] The percent inhibition of monoamine oxidase-B activity compared to controls containing no drug was calculated. Reference: Lyles, G. A. and Callingham, B. A. (1982). […] Biochaem. Pharmacol. 31:1417-1424.
Neuroprotectant activity was evaluated by examining the prevention of DSP-4 induced noradrenaline depletion in mouse hippocampus as described previously (Yu et al., 1994). Briefly, mice were injected (i.p.) with either water or potential neuroprotectants (10 mg/kg in water). One hour later they were injected with either water or DSP-4 (50 mg/kg in water). One week later the mice were killed and the brains removed and the hippocampus dissected out. The hippocampus was frozen and saved for estimation of noradrenaline and other amine neurotransmitters and their metabolites (Sloley and Goldberg, 1991). The rest of the brain and the liver were frozen and retained for estimation of monoamine oxidase activities ex vivo as described earlier. […] 63:1820-1828. Sloley, B. D. and Goldberg J. I. (1991), Determination of y-glutamyl conjugates of monoamines by means of high-performance liquid chromatography with electrochemical detection and application to gastropod tissues, J. Chromatog. 567:49-56.

[5] = tested on: DSP-4 induced noradrenaline depletion in mouse hippocampus; experiment: Prevention of DSP-4 neurotoxicity ex vivo (noradrenaline depletion); assay type: in vivo; details: 10 mg/kg i.p.; for % NA Restoration: then DSP-4 50 mg/kg one hour later, one week
Description: Neuroprotectant activity was evaluated by examining the prevention of DSP-4 induced noradrenaline depletion in mouse hippocampus as described previously (Yu et al., 1994). Briefly, mice were injected (i.p.) with either water or potential neuroprotectants (10 mg/kg in water). One hour later they were injected with either water or DSP-4 (50 mg/kg in water). One week later the mice were killed and the brains removed and the hippocampus dissected out. The hippocampus was frozen and saved for estimation of noradrenaline and other amine neurotransmitters and their metabolites (Sloley and Goldberg, 1991). The rest of the brain and the liver were frozen and retained for estimation of monoamine oxidase activities ex vivo as described earlier. […] References: Yu, P. H., Davis, B. A., Fang, J. and Boulton, A. A. (1994), Neuroprotective effect of some monoamine oxidase-B inhibitors against DSP-4 induced noradrenaline depletion in the mouse hippocampus, J. Neurochem. 63:1820-1828. Sloley, B. D. and Goldberg J. I. (1991), Determination of y-glutamyl conjugates of monoamines by means of high-performance liquid chromatography with electrochemical detection and application to gastropod tissues, J. Chromatog. 567:49-56.

[6] = tested on: noradrenaline uptake into rat hippocampal prisms; experiment: Inhibition of noradrenaline uptake in vitro; assay type: cell-based; parameters: dose or concentration left out as unconfirmed
Description: The ability of N-propargylphetermine and related derivatives to inhibit monoamine uptake was evaluated in vitro by examining the effects of said compounds on the uptake of radiolabeled noradrenaline and serotonin into fresh rat hippocampal and striatal prisms, respectively according to the method described in Martin et al., (1978). Animals were killed by decapitation and the hippocampus or striatum were removed and placed in ice cold incubation medium. Prisms were prepared using a tissue chopper, resuspended in 800 volumes of incubation medium containing 12.5 μM nialamide to inhibit amine metabolism and stored on ice until used. 0.8 ml of ice cold prism of suspension per test tube was used. Each test tube was pre-incubated for 5 minutes at 37° C. At this time each test tube was placed on ice and the appropriate drug solution or control was added. This was rapidly followed by the addition of the radiolabled amine (titrated noradrenaline or serotonin, 0.01 μM, specific activity about 13.5 Ci/mmol). The mixture was incubated for 10 minutes at 37° C. The incubations were then filtered and washed using a cell harvester and the radioactivity retained on the filters was measured using a scintillation counter. The percent inhibition of amine uptake compared to controls containing no drug was calculated. Reference: Maretin I. L., Baker G. B. and Mitchell, P. R. (1978). The effect of viloxaine hydrochloride on the transport of noradenaline, dopamine, 5-hydroxytryptamine and gamma-amino-butyric acid in rat brain tissue. Neuropharmacology 17:421-423.

[7] = tested on: serotonin (5-HT) uptake into rat striatal prisms; experiment: Inhibition of serotonin uptake in vitro; assay type: cell-based; parameters: dose or concentration left out as unconfirmed
Description: Animals were killed by decapitation and the hippocampus or striatum were removed and placed in ice cold incubation medium. […] 0.8 ml of ice cold prism of suspension per test tube was used. Each test tube was pre-incubated for 5 minutes at 37° C. At this time each test tube was placed on ice and the appropriate drug solution or control was added. This was rapidly followed by the addition of the radiolabled amine (titrated noradrenaline or serotonin, 0.01 μM, specific activity about 13.5 Ci/mmol). The mixture was incubated for 10 minutes at 37° C. The incubations were then filtered and washed using a cell harvester and the radioactivity retained on the filters was measured using a scintillation counter. The percent inhibition of amine uptake compared to controls containing no drug was calculated. […] The effect of viloxaine hydrochloride on the transport of noradenaline, dopamine, 5-hydroxytryptamine and gamma-amino-butyric acid in rat brain tissue.

Row | Molecule | IC50 ([1]; in vitro, rat brain homogenate, read-out: IC50 for inhibition of monoamine oxidase A) [µM] | IC50 [2] [µM] | IC50 [1] [µM] | % Inhibition Monoamine Oxidase-A ([3]; brain) [%] | % Inhibition Monoamine Oxidase-A ([3]; liver) [%] | effect on monoamine oxidase-A activity in the brain or liver [3] | % Inhibition Monoamine Oxidase-B ([4]; brain) [%] | % Inhibition Monoamine Oxidase-B ([4]; liver) [%] | effect on monoamine oxidase-B activity in the brain or liver [4] | protection against DSP-4-induced noradrenaline depletion [5] | % NA Restoration ([5]; Table 5 experiment) [%] | % inhibition NA uptake [6] [%] | % inhibition 5-HT uptake [7] [%] | % NA Restoration ([5]; Table 6 experiment) [%]
1 | NNCCc1ccccc1 [phenelzine.H2SO4, phenelzine, reference compound] | 130 | 26 |  |  |  |  |  |  |  |  |  |  |  | 
2 | C#CCNC(C)(C)Cc1ccccc1 [CVT-PP019, N-propargylphentermine] |  | 5.7 | 53 | −16.4 ± 4.9 | −20.1 ± 4.4 | did not significantly affect | −9.4 ± 3.0 | −10.1 ± 6.6 | did not significantly affect | significantly protected | 114.6 | 77 ± 3 | 68 ± 2 | 
3 | (−)-deprenyl [reference compound] |  |  |  |  |  |  |  |  |  |  | 97.2 |  |  | 90.3
4 | C#CCNC(C)(C)Cc1ccc(Cl)cc1 [CVT-PP022, p-chloro-N-propargylphentermine] |  | 4 | 160 | 2.5 ± 5.2 | 5.9 ± 4.1 | did not significantly affect | 17.5 ± 5.6 | 12.6 ± 5.3 | did not significantly affect | significantly protected |  | 93 ± 2 | 89 ± 1 | 70.5
5 | CNCCCN1c2ccccc2CCc2ccccc21 [Desipramine, reference compound] |  |  |  |  |  |  |  |  |  |  |  | 99 ± 3 |  | 
